Active and inactive are the calls of the source. No rule for the calls is given here.

For this data set, the system named is rodent carcinogenicity bioassays, tumor incidence. Put plainly: CCRIS carcinogenicity studies. In short, it runs like this: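 Archive of carcinogenicity, mutagenicity, tumor promotion and tumor inhibition results drawn from journals, NCI reports and other sources, expert-reviewed; covers 1985-2011 and is no longer updated.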

For the molecule `Nc1nc(=S)c2ncn([C@H]3C[C@H](O)[C@@H](CO)O3)c2[nH]1`, the carcinogen call reads like this: (Species: RAT, Strain/Sex: SPRAGUE-DAWLEY/FEMALE, Route: INTRAPERITONEAL, Dose: 0, 3.5, 7 MG/KG FOR 52 WK (STUDY DURATION: 78 WK), Dose: 0, 3.5, 7 MG/KG FOR 52 WK (STUDY DURATION: 78 WK), Tumor Site: Type of Lesion: EAR (CANAL): CARCINOMA, NOS OR SQUAMOUS CELL CARCINOMA) “active; positive”; (Species: RAT, Strain/Sex: SPRAGUE-DAWLEY/MALE, Route: INTRAPERITONEAL, Dose: 0, 3.5, 7 MG/KG FOR 52 WK (STUDY DURATION: 78 WK), Dose: 0, 3.5, 7 MG/KG FOR 52 WK (STUDY DURATION: 78 WK), Tumor Site: Type of Lesion: EAR (CANAL): CARCINOMA OR SQUAMOUS CELL CARCINOMA) “equivocal”.
As to `CC(=O)OCc1c2ccccc2c2ccc3cccc4ccc1c2c43`, the carcinogen call (Species: MOUSE, Strain/Sex: B6C3F1/MALE, Route: INTRAPERITONEAL, Dose: 0, 0.0025, 0.005 UMOL/G ONCE AT 12 DAYS OF AGE (STUDY DURATION: 10 MO), Dose: 0, 0.0025, 0.005 UMOL/G ONCE AT 12 DAYS OF AGE (STUDY DURATION: 10 MO), Tumor Site: Type of Lesion: LIVER: HEPATOMA) is “active; positive”.
As to `CS(=O)CC(=O)c1ccccn1` (stereo not drawn), the carcinogen call is “active; positive” (Species: MOUSE, Strain/Sex: B6C3F1/FEMALE, Route: ORAL, Dose: 0, 40, 240, 600 MG/KG IN DIET FOR 80 WK (STUDY DURATION: 80 WK), Dose: 0, 40, 240, 600 MG/KG IN DIET FOR 80 WK (STUDY DURATION: 80 WK), Tumor Site: Type of Lesion: LUNG: ALVEOLOGENIC ADENOCARCINOMA); “inactive; negative” (Species: MOUSE, Strain/Sex: CF1/MALE, Route: ORAL, Dose: 0, 40, 240, 600 MG/KG IN DIET FOR 80 WK (STUDY DURATION: 80 WK), Dose: 0, 40, 240, 600 MG/KG IN DIET FOR 80 WK (STUDY DURATION: 80 WK)); “inactive; negative” (Species: RAT, Strain/Sex: WISTAR/FEMALE, Route: ORAL, Dose: 0, 40, 240, 600 MG/KG IN DIET FOR 104 WK (STUDY DURATION: 104 WK), Dose: 0, 40, 240, 600 MG/KG IN DIET FOR 104 WK (STUDY DURATION: 104 WK)); “active; positive” (Species: RAT, Strain/Sex: WISTAR/MALE, Route: ORAL, Dose: 0, 40, 240, 600 MG/KG IN DIET FOR 104 WK (STUDY DURATION: 104 WK), Dose: 0, 40, 240, 600 MG/KG IN DIET FOR 104 WK (STUDY DURATION: 104 WK), Tumor Site: Type of Lesion: LIVER: HEPATOCELLULAR ADENOMA).
As for `Cc1ccccc1N=O`, the carcinogen call (Species: RAT, Strain/Sex: F344/MALE, Route: ORAL, Dose: 3.38 G/KG- DIET FOR 72 WK (TOTAL DOSE 0.21 MOL/RAT), Tumor Site: Type of Lesion: LIVER: HEPATOMA, URINARY BLADDER: PAPILLOMA, PERITONEAL CAVITY: MESOTHELIOMA, SARCOMA, SPLEEN: FIBROMA, INTEGUMENTARY SY, Tumor Site: Type of Lesion: LIVER: HEPATOMA, URINARY BLADDER: PAPILLOMA, PERITONEAL CAVITY: MESOTHELIOMA, SARCOMA, SPLEEN: FIBROMA, INTEGUMENTARY SY) was “active; positive”.
On to `IC(I)I`, for which the carcinogen call is “inactive; negative” (Species: MOUSE, Strain/Sex: B6C3F1/FEMALE, Route: GAVAGE, Dose: 0, 47, 93 MG/KG, TWA, Dose: 0, 47, 93 MG/KG, TWA); “inactive; negative” (Species: MOUSE, Strain/Sex: B6C3F1/MALE, Route: GAVAGE, Dose: 0, 47, 93 MG/KG, TWA, Dose: 0, 47, 93 MG/KG, TWA); “inactive; negative” (Species: RAT, Strain/Sex: OSBORNE-MENDEL/FEMALE, Route: GAVAGE, Dose: 0, 27, 55 MG/KG, TWA, Dose: 0, 27, 55 MG/KG, TWA); “inactive; negative” (Species: RAT, Strain/Sex: OSBORNE-MENDEL/MALE, Route: GAVAGE, Dose: 0, 71, 142 MG/KG, TWA, Dose: 0, 71, 142 MG/KG, TWA).
`N#[N+]c1ccccc1`: the carcinogen call is “active; positive” (Species: MOUSE, Strain/Sex: SWISS/FEMALE, Route: GAVAGE, Dose: 0, 100 MG/KG BW 1X/WK FOR 52 WK (STUDY DURATION: 140 WK), Tumor Site: Type of Lesion: LUNG: TUMOR); “active; positive” (Species: MOUSE, Strain/Sex: SWISS/FEMALE, Route: SUBCUTANEOUS, Dose: 0, 10 UG/G BW IN 0.01 ML OF 0.9% SALINE 1/WK FOR 26 WK (STUDY DURATION: 140WK), Tumor Site: Type of Lesion: SUBCUTANEOUS TISSUE: TUMOR); “inactive; negative” (Species: MOUSE, Strain/Sex: SWISS/FEMALE, Route: SUBCUTANEOUS, Dose: 0, 25 MG/KG BW 1X/WK FOR 10 WK (STUDY DURATION: 130 WK)); “active; positive” (Species: MOUSE, Strain/Sex: SWISS/MALE, Route: GAVAGE, Dose: 0, 100 MG/KG BW 1X/WK FOR 52 WK (STUDY DURATION: 130 WK), Tumor Site: Type of Lesion: LUNG: TUMOR); “active; positive” (Species: MOUSE, Strain/Sex: SWISS/MALE, Route: SUBCUTANEOUS, Dose: 0, 10 UG/G BW IN 0.01 ML OF 0.9% SALINE 1/WK FOR 26 WK (STUDY DURATION: 140 WK), Tumor Site: Type of Lesion: SUBCUTANEOUS TISSUE: TUMOR); “inactive; negative” (Species: MOUSE, Strain/Sex: SWISS/MALE, Route: SUBCUTANEOUS, Dose: 0, 25 MG/KG BW 1X/WK FOR 10 WK (STUDY DURATION: 120 WK)).
With `CN1CCC[C@H]1c1cccnc1`, under “Species: RAT, Strain/Sex: F344/FEMALE, Route: INHALATION, Dose: 0, 500 UG/M3 20 HR/D 5 D/WK FOR 2 YR (STUDY DURATION: 2 YR)”, the carcinogen call is “inactive; negative”.
As for `OCCO`, the carcinogen call is “inactive; negative” (Species: MOUSE, Strain/Sex: B6C3F1/FEMALE, Route: ORAL, Dose: 0, 12500, 25000, 50000 PPM IN DIET FOR 721 D (STUDY DURATION: 105 WK), Dose: 0, 12500, 25000, 50000 PPM IN DIET FOR 721 D (STUDY DURATION: 105 WK)) and “inactive; negative” (Species: MOUSE, Strain/Sex: B6C3F1/MALE, Route: ORAL, Dose: 0, 6250, 12500, 25000 PPM IN DIET FOR 721 D (STUDY DURATION: 105 WK), Dose: 0, 6250, 12500, 25000 PPM IN DIET FOR 721 D (STUDY DURATION: 105 WK)).
As for `CCCCN(N=O)C(=O)CCC(=O)OCC`, the carcinogen call (Species: RAT, Strain/Sex: F344/MALE,FEMALE, Route: SUBCUTANEOUS, Dose: 38 UMOL/KG IN OLIVE OIL 1/WK FOR 10 WK, Tumor Site: Type of Lesion: INJECTION SITE: MALIGNANT FIBROUS HISTIOCYTOMA) is “active; positive”.
As for `CCCCN(N=O)C1CCC(=O)O1` (stereo not drawn), the carcinogen call (Species: RAT, Strain/Sex: F344/MALE, Route: SUBCUTANEOUS, Dose: 38 UMOL/KG IN OLIVE OIL 1/WK FOR 10 WK, Tumor Site: Type of Lesion: INJECTION SITE: MALIGNANT FIBROUS HISTIOCYTOMA, LUNG: ADENOMA) is “active; positive”.
